Measurements published in patent US20030212034A1, “Method of treatment of obesity and paralyzed muscle and ergogenic aids” (priority 2002, published 2003).

Experiments:
Format in all cases: in vivo, rat
[1] = system: hydroxyacyl-CoA dehydrogenase; experiment: Muscle hydroxyacyl-CoA dehydrogenase activity after chronic AICAR injection; conditions: chronic AICAR 1 mg/g daily 4 wk
Procedure: (§1) To determine the effect of chronic injection of AICAR on muscle enyzme activities or expression and on muscle GLUT4, rats were injected subcutaneously (between 8 and 10 a.m.) with AICAR (1 mg/g) or saline vehicle daily for 28±1 days in succession. Beginning with the first injection, controls were pair fed with AICAR-injected rats. Rats were anesthetized by intraperitoneal injection of pentobarbital sodium 22-25 hours after the last AICAR injection and the white and red regions of the quadriceps and the soleus muscles were removed and frozen as described above. Muscles were kept frozen at −70° C. until analyzed. Liver, heart, kidney, and fat pads were weighed.
(§2) For enzyme activity measurements, 10% homogenates were made from the respective muscles in 175 mM KCl, 10 mM GSH, 2 mM EDTA, pH 7.4. This homogenate was frozen and thawed 3 times and mixed thoroughly prior to enzymatic measurements. For succinate dehydrogenase and lactate dehydrogenase, an aliquot of the homogenate was centrifuged at 700×g for 10 min at 4° C. The remainder of the assays were performed on aliquots and dilutions of the mixed whole homogenate. Assays were performed by the following methods: citrate synthase, succinate dehydrogenase, the mitochondrial fraction of malate dehydrogenase, hexokinase, lactate dehydrogenase, carnitine palmitoyl transferase and hydroxyacyl-CoA dehydrogenase. Srere, P. A. Methods in Enzymology 13:3-6, 1969; King, T. E. Methods Enzymol 10:322-335, 1967; Shonk, C. E. & G. E. Boxer, Cancer Res. 24:709-721, 1964; Uyeda, K., & E. Racker, J. Biol Chem 240:4682-4688, 1965; Pesce, A., et al. J. Biol. Chem. 239:1753-1761, 1964; Baldwin, K. M., et al. Am. J. Physiol 222:373-378, 1972; Mole, P. A., et al. J. Clin. Invest. 50:2323-2330, 1971; Kobayashi, A. et al. J. Biochem. 119:775-782, 1996.

succinate dehydrogenase = experiment: Muscle succinate dehydrogenase activity after chronic AICAR injection; conditions: AICAR 1 mg/g daily 4 wk, FIG. 4
Procedure: as §1
For enzyme activity measurements, 10% homogenates were made from the respective muscles in 175 mM KCl, 10 mM GSH, 2 mM EDTA, pH 7.4. This homogenate was frozen and thawed 3 times and mixed thoroughly prior to enzymatic measurements. For succinate dehydrogenase and lactate dehydrogenase, an aliquot of the homogenate was centrifuged at 700×g for 10 min at 4° C. The remainder of the assays were performed on aliquots and dilutions of the mixed whole homogenate. Assays were performed by the following methods: citrate synthase, succinate dehydrogenase, the mitochondrial fraction of malate dehydrogenase, hexokinase, lactate dehydrogenase, carnitine palmitoyl transferase and hydroxyacyl-CoA dehydrogenase. […]

hexokinase = experiment: Muscle hexokinase activity after chronic AICAR injection; conditions: AICAR 1 mg/g 4 weeks, FIG. 5
Procedure: as §1, §2

GLUT4 = experiment: Muscle GLUT4 by western blot after chronic AICAR injection; conditions: AICAR 1 mg/g 4 weeks, FIG. 5
Procedure: as §1
For the chronic effects of AICAR injection muscles were analyzed for glycogen GLUT-4, hexokinase, lactate dehydrogenase, and several mitochondrial enzymes. Hassid, W. Z., & S. Abraham Methods Enzymol. 3:35-36, 1957. GLUT4 was quantitated by western blotting as described previously using GLUT4 polyclonal antibody RaIRGT, Biogenesis, Sandown, N.H.) and horseradish peroxidase-conjugated donkey anti-rabbit IgG (Amersham Life Science, Arlington Heights, Ill.). Holmes, B. F., et al. J. Appl Physiol 87:1990-1995, 1999. δ-Aminolevulinic acid synthase was determined using western blotting techniques as described previously. Li, B., et al. J. Biol. Chem. 274:17534-17540, 1999. For determination of cytochrome c, muscles were homogenized in 10 mM n-2-hydroxyethylpiperazine-N′-2-ethanesulfonic acid (HEPES), 1 mM EDTA, and 250 mM sucrose (HES buffer). […] Cytochrome c was detected by incubating the nitrocellulose blots with a rabbit polyclonal antibody against rabbit heart cytochrome c (Alpha Diagnostics International, San Antonio) followed by horseradish peroxidase-conjugated anti-rabbit immunoglobulin G. Antibody bound GLUT4, δ-Aminolevulinic acid synthase, and cytochrome c were visualized using enhanced chemiluminescence. Protein bands were quantified by densitometry.

cytochrome c = experiment: Muscle cytochrome c protein by western blot after chronic AICAR injection; conditions: AICAR 4 weeks, FIG. 2
Procedure: as §1
For the chronic effects of AICAR injection muscles were analyzed for glycogen GLUT-4, hexokinase, lactate dehydrogenase, and several mitochondrial enzymes. Hassid, W. Z., & S. Abraham Methods Enzymol. 3:35-36, 1957. GLUT4 was quantitated by western blotting as described previously using GLUT4 polyclonal antibody RaIRGT, Biogenesis, Sandown, N.H.) and horseradish peroxidase-conjugated donkey anti-rabbit IgG (Amersham Life Science, Arlington Heights, Ill.). Holmes, B. F., et al. J. Appl Physiol 87:1990-1995, 1999. δ-Aminolevulinic acid synthase was determined using western blotting techniques as described previously. Li, B., et al. J. Biol. Chem. 274:17534-17540, 1999. […] Protein bands were quantified by densitometry.

[2] = system: acetyl-CoA carboxylase (ACC); experiment: ACC activity and citrate dependence in denervated and contralateral muscles after acute AICAR injection; conditions: for ACC activity vs saline, several citrate concentrations / ACC activity at 0.2 mM citrate vs saline-treated contralateral innervated soleus: acute AICAR 1 mg/g; for ACC activity vs saline, several citrate concentrations: FIG. 10; for ACC activity at 0.2 mM citrate vs saline-treated contralateral innervated soleus: FIG. 9
From the text: Rats were anesthetized with ether and the sciatic nerve of the right hindlimb was severed. The left hindlimb was sham operated to serve as a control. Both skin wounds were closed with a metal clips. The rats used for the acute study were also implanted with a jugular catheter which was exteriorized on the back of the neck at the time of denervation for rapid administration of anesthesia.
Rats were denervated between 8:30 a.m. and 10:30 a.m. and were then given 25 g of food. Rats were handled twice during the day to accustom them to being handled. The rats were given a single subcutaneous injection 24 hours. after surgery of either AICAR (1 mg/g body weight) in sterile 0.9% NaCl or with just 0.9% NaCl, and were subsequently anesthetized intravenously. Soleus and gastrocnemius muscles from both sham and denervated sides were extracted and quick frozen in liquid nitrogen for analysis. AMPK activity and acetyl-Co A carboxylase (ACC) activity were determined as previously described. Winder W W & Hardie D G, Am J. Physiol 270 (Endocrinol Metab 33): E299-E304, 1996. Because this analysis is done on homogenates prepared by ammonium sulfate precipitation, only those effects on AMPK activity modified by phosphorylation are measured. […] Because ACC is a target for phosphorylation by AMPK, and because ACC activity has been reported to decrease in response to phosphorylation by AMPK, ACC activity is measured to give an indication of the in vivo actions of AMPK.
Referring to FIG. 10, Citrate dependence of acetyl-CoA carboxylase (ACC) in denervated and contralateral innervated gastrocnemius muscles from rats treated with AICAR (1 mg AICAR in 0.9% NaCl/1 g body weight) or saline (0.9% NaCl) is illustrated. SE values were determined but are not shown (n=5).Curves were fitted to data by using the Hill equation and Grafit software (Sigma Chemical, St. Louis, Mo.). FIG. 10 graphs the specific activity of ACC in saline-treated and AICAR-treated gastrocnemius muscles at several different citrate concentrations.

Work on `NC(=O)c1ncn([C@@H]2O[C@H](CO)[C@@H](O)[C@H]2O)c1N` [AICAR, 5-aminoimidazole-4-carboxamide-1-β-D-ribofuranoside] yielded an HADH activity ([1]; red quadriceps) of 9.0 ± 0.4 µmol/g/min, an HADH activity ([1]; soleus) of 4.6 ± 0.4 µmol/g/min and an HADH activity ([1]; white quadriceps) of 4.6 ± 0.3 µmol/g/min. For the same molecule, the “succinate dehydrogenase activity vs controls” value (succinate dehydrogenase; soleus) was “all increased”, the “succinate dehydrogenase activity vs controls” value (succinate dehydrogenase; white quadriceps) was “all increased” and the “hexokinase activity vs saline-injected controls” value (hexokinase; red region of the quadriceps) was “significantly increased”. For the same molecule, the “hexokinase activity vs saline-injected controls” value (hexokinase; soleus) was “increase in hexokinase activity in soleus was statistically significant”, the “hexokinase activity vs saline-injected controls” value (hexokinase; white region of the quadriceps) was “significantly increased” and the “GLUT4 vs saline-injected controls” value (GLUT4; red region of the quadriceps) was “significantly increased”. For the same molecule, the “GLUT4 vs saline-injected controls” value (GLUT4; soleus, p=0.12) was “did not reach statistical significance”, the “GLUT4 vs saline-injected controls” value (GLUT4; white region of the quadriceps) was “significantly increased” and the “cytochrome c protein vs saline controls” value (cytochrome c; red quadriceps) was “not in red quadriceps”. The “cytochrome c protein vs saline controls” value (cytochrome c; white quadriceps) was “also increased”, the “ACC activity vs saline, several citrate concentrations” value ([2]; contralateral innervated gastrocnemius) was “significantly decrease ACC activity” and the “ACC activity at 0.2 mM citrate vs saline-treated contralateral innervated soleus” value ([2]; contralateral soleus) was “significantly (P<0.01) decreased”. The “ACC citrate activation constant (Ka)” value ([2]; denervated gastrocnemius, acute AICAR 1 mg/g s.c., saline-treated denervated 3.6±0.3) was 13.2±1.1, the “ACC maximal velocity (Vmax) as a function of citrate concentration” value ([2]; denervated gastrocnemius, acute AICAR 1 mg/g s.c., saline-treated denervated 36.7±5) was 24.7±1.9 and the “ACC activity vs saline, several citrate concentrations” value ([2]; denervated gastrocnemius) was “significantly decrease ACC activity”. The “ACC activity at 0.2 mM citrate vs saline-treated contralateral innervated soleus” value ([2]; denervated soleus) was “significantly (P<0.01) decreased”.
